Laboratory results from PubChem BioAssay (NCI).
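48-hour exposure; five concentrations; linearly interpolated endpoints. TGI marks complete inhibition of growth.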

Tests used:
Test in all cases: inhibition of tumour cell growth, NCI panel, 48 h
[1] = tested on: 786-0 renal
[2] = tested on: A549 NSCLC
[3] = tested on: ACHN renal
[4] = tested on: BT-549 breast
[5] = tested on: CAKI-1 renal
[6] = tested on: CCRF-CEM leukemia
[7] = tested on: COLO 205 colon
[8] = tested on: DU-145 prostate
[9] = tested on: EKVX NSCLC
[10] = tested on: HCC-2998 colon
[11] = tested on: HCT-116 colon
[12] = tested on: HCT-15 colon
[13] = tested on: HOP-62 NSCLC
[14] = tested on: HOP-92 NSCLC
[15] = tested on: HS 578T breast
[16] = tested on: HT29 colon
[17] = tested on: IGROV1 ovarian
[18] = tested on: K-562 leukemia
[19] = tested on: KM12 colon
[20] = tested on: LOX IMVI melanoma
[21] = tested on: M14 melanoma
[22] = tested on: MALME-3M melanoma
[23] = tested on: MCF7 breast
[24] = tested on: MDA-MB-231 breast
[25] = tested on: MDA-MB-435
[26] = tested on: MDA-N
[27] = tested on: MOLT-4 leukemia
[28] = tested on: NCI-H23 lung
[29] = tested on: NCI-H460 lung
[30] = tested on: NCI-H522 lung
[31] = tested on: NCI/ADR-RES ovarian
[32] = tested on: OVCAR-3 ovarian
[33] = tested on: OVCAR-4 ovarian
[34] = tested on: OVCAR-5 ovarian
[35] = tested on: OVCAR-8 ovarian
[36] = tested on: PC-3 prostate
[37] = tested on: RXF 393 renal
[38] = tested on: SF-268 CNS
[39] = tested on: SF-295 CNS
[40] = tested on: SK-MEL-2 melanoma
[41] = tested on: SK-MEL-28 melanoma
[42] = tested on: SK-MEL-5 melanoma
[43] = tested on: SK-OV-3 ovarian
[44] = tested on: SN12C renal
[45] = tested on: SNB-19 CNS
[46] = tested on: SNB-75 CNS
[47] = tested on: SW-620 colon
[48] = tested on: T-47D breast
[49] = tested on: TK-10 renal
[50] = tested on: U251 CNS
[51] = tested on: UACC-257 melanoma
[52] = tested on: UACC-62 melanoma
[53] = tested on: UO-31 renal

In the case of `CC(C)(C)OC(=O)N1CCC[C@H]1CSC[C@@H]1CCCN1C(=O)OC(C)(C)C`, the TGI [1] is reported as over 100 µM, the TGI [2] is reported as 87.3 µM and the TGI [3] is reported as 82.2 µM. It also gave a TGI [4] of 58.9 µM, a TGI [5] of over 100 µM and a TGI [6] of 44.8 µM. The TGI [7] was 30.5 µM, the TGI [8] was over 100 µM and the TGI [9] was over 100 µM. For the same compound, the TGI [10] was over 100 µM, the TGI [11] was 78.5 µM and the TGI [12] was 92.4 µM. The TGI [13] was over 100 µM, the TGI [14] was 39.5 µM and the TGI [15] was 79.3 µM. It also gave a TGI [16] of 34.9 µM, a TGI [17] of over 100 µM and a TGI [18] of 84.7 µM. It also gave a TGI [19] of 48.2 µM, a TGI [20] of 35.2 µM and a TGI [21] of 38.2 µM. It also gave a TGI [22] of 63.5 µM, a TGI [23] of 96.3 µM and a TGI [24] of over 100 µM. For the same compound, the TGI [25] was 46.7 µM, the TGI [26] was over 100 µM and the TGI [27] was 37.5 µM. It also gave a TGI [28] of 68.2 µM, a TGI [29] of over 100 µM and a TGI [30] of 56 µM. For the same compound, the TGI [31] was 48.9 µM, the TGI [32] was 90.3 µM and the TGI [33] was over 100 µM. It also gave a TGI [34] of over 100 µM, a TGI [35] of over 100 µM and a TGI [36] of 82.1 µM. It also gave a TGI [37] of 69 µM, a TGI [38] of over 100 µM and a TGI [39] of over 100 µM. It also gave a TGI [40] of 40.6 µM, a TGI [41] of 60 µM and a TGI [42] of 32.7 µM. It also gave a TGI [43] of over 100 µM, a TGI [44] of over 100 µM and a TGI [45] of over 100 µM. It also gave a TGI [46] of 77.2 µM, a TGI [47] of 96.8 µM and a TGI [48] of 80.7 µM. For the same compound, the TGI [49] was over 100 µM, the TGI [50] was 90.7 µM and the TGI [51] was 90.8 µM. It also gave a TGI [52] of 57.2 µM and a TGI [53] of 74.9 µM.
